Measurements taken from PubChem BioAssay (NCI).
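Following 48 hours of exposure in 96-well plates, responses at five concentrations were used to interpolate endpoints linearly. GI50 is the concentration that inhibits growth by half. TGI: concentration producing complete growth inhibition.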

Assays:
Assay in all cases: NCI anticancer screen, dose series, 48 h
PC-3 prostate = tested on: PC-3 prostate
LOX IMVI melanoma = tested on: LOX IMVI melanoma
SNB-75 CNS = tested on: SNB-75 CNS
HOP-62 NSCLC = tested on: HOP-62 NSCLC
NCI-H226 lung = tested on: NCI-H226 lung
NCI-H23 lung = tested on: NCI-H23 lung
SN12C renal = tested on: SN12C renal
ACHN renal = tested on: ACHN renal
SF-268 CNS = tested on: SF-268 CNS
U251 CNS = tested on: U251 CNS
SF-539 CNS = tested on: SF-539 CNS
UACC-257 melanoma = tested on: UACC-257 melanoma
HL-60(TB) leukemia = tested on: HL-60(TB) leukemia
NCI/ADR-RES ovarian = tested on: NCI/ADR-RES ovarian
IGROV1 ovarian = tested on: IGROV1 ovarian
MDA-MB-435 = tested on: MDA-MB-435
HS 578T breast = tested on: HS 578T breast
EKVX NSCLC = tested on: EKVX NSCLC
MOLT-4 leukemia = tested on: MOLT-4 leukemia
M14 melanoma = tested on: M14 melanoma
OVCAR-5 ovarian = tested on: OVCAR-5 ovarian
T-47D breast = tested on: T-47D breast
NCI-H522 lung = tested on: NCI-H522 lung
SF-295 CNS = tested on: SF-295 CNS
HCT-116 colon = tested on: HCT-116 colon
KM12 colon = tested on: KM12 colon
HCC-2998 colon = tested on: HCC-2998 colon
HCT-15 colon = tested on: HCT-15 colon
A549 NSCLC = tested on: A549 NSCLC
OVCAR-8 ovarian = tested on: OVCAR-8 ovarian
SNB-19 CNS = tested on: SNB-19 CNS
OVCAR-4 ovarian = tested on: OVCAR-4 ovarian
TK-10 renal = tested on: TK-10 renal
BT-549 breast = tested on: BT-549 breast
786-0 renal = tested on: 786-0 renal
RXF 393 renal = tested on: RXF 393 renal
SK-MEL-5 melanoma = tested on: SK-MEL-5 melanoma
HT29 colon = tested on: HT29 colon
K-562 leukemia = tested on: K-562 leukemia
COLO 205 colon = tested on: COLO 205 colon
OVCAR-3 ovarian = tested on: OVCAR-3 ovarian
SK-MEL-28 melanoma = tested on: SK-MEL-28 melanoma
CAKI-1 renal = tested on: CAKI-1 renal
NCI-H460 lung = tested on: NCI-H460 lung
UACC-62 melanoma = tested on: UACC-62 melanoma
CCRF-CEM leukemia = tested on: CCRF-CEM leukemia
RPMI-8226 leukemia = tested on: RPMI-8226 leukemia
SW-620 colon = tested on: SW-620 colon
SR leukemia = tested on: SR leukemia
MDA-MB-231 breast = tested on: MDA-MB-231 breast
MALME-3M melanoma = tested on: MALME-3M melanoma
A498 renal = tested on: A498 renal
SK-OV-3 ovarian = tested on: SK-OV-3 ovarian
UO-31 renal = tested on: UO-31 renal
SK-MEL-2 melanoma = tested on: SK-MEL-2 melanoma
MCF7 breast = tested on: MCF7 breast
DU-145 prostate = tested on: DU-145 prostate

CN1CCN(Cc2ccc(NC(=O)c3cncc(C#Cc4cnc5ccc(N6CCOCC6)nn45)c3)cc2C(F)(F)F)CC1
GI50 (PC-3 prostate): 145 nM
TGI (PC-3 prostate): 1040 nM
GI50 (LOX IMVI melanoma): 59.3 nM
TGI (LOX IMVI melanoma): 142 nM
GI50 (SNB-75 CNS): 47.7 nM
TGI (SNB-75 CNS): 155 nM
GI50 (HOP-62 NSCLC): 100 nM
TGI (HOP-62 NSCLC): 328 nM
GI50 (NCI-H226 lung): 23.9 nM
TGI (NCI-H226 lung): 320 nM
GI50 (NCI-H23 lung): 79.6 nM
TGI (NCI-H23 lung): 325 nM
GI50 (SN12C renal): 49.5 nM
TGI (SN12C renal): 300 nM
GI50 (ACHN renal): 131 nM
TGI (ACHN renal): 510 nM
GI50 (SF-268 CNS): 82.3 nM
TGI (SF-268 CNS): 218 nM
GI50 (U251 CNS): 141 nM
TGI (U251 CNS): 558 nM
GI50 (SF-539 CNS): 60 nM
TGI (SF-539 CNS): 205 nM
GI50 (UACC-257 melanoma): 160 nM
TGI (UACC-257 melanoma): 936 nM
GI50 (HL-60(TB) leukemia): 23.9 nM
TGI (HL-60(TB) leukemia): 224 nM
GI50 (NCI/ADR-RES ovarian): 814 nM
TGI (NCI/ADR-RES ovarian): 3750 nM
GI50 (IGROV1 ovarian): 46.8 nM
TGI (IGROV1 ovarian): 430 nM
GI50 (MDA-MB-435): 53.3 nM
TGI (MDA-MB-435): 231 nM
GI50 (HS 578T breast): 85.3 nM
TGI (HS 578T breast): 353 nM
GI50 (EKVX NSCLC): 101 nM
TGI (EKVX NSCLC): 564 nM
GI50 (MOLT-4 leukemia): 95.8 nM
TGI (MOLT-4 leukemia): 1460 nM
GI50 (M14 melanoma): 50.6 nM
TGI (M14 melanoma): 122 nM
GI50 (OVCAR-5 ovarian): 85.8 nM
TGI (OVCAR-5 ovarian): 548 nM
GI50 (T-47D breast): 199 nM
TGI (T-47D breast): 2620 nM
GI50 (NCI-H522 lung): 68 nM
TGI (NCI-H522 lung): 161 nM
GI50 (SF-295 CNS): 140 nM
TGI (SF-295 CNS): 686 nM
GI50 (HCT-116 colon): 26.3 nM
TGI (HCT-116 colon): 342 nM
GI50 (KM12 colon): 5 nM
TGI (KM12 colon): 243 nM
GI50 (HCC-2998 colon): 130 nM
TGI (HCC-2998 colon): 474 nM
GI50 (HCT-15 colon): 112 nM
TGI (HCT-15 colon): 375 nM
GI50 (A549 NSCLC): 121 nM
TGI (A549 NSCLC): 555 nM
GI50 (OVCAR-8 ovarian): 134 nM
TGI (OVCAR-8 ovarian): 541 nM
GI50 (SNB-19 CNS): 163 nM
TGI (SNB-19 CNS): 686 nM
GI50 (OVCAR-4 ovarian): 99.1 nM
TGI (OVCAR-4 ovarian): 543 nM
GI50 (TK-10 renal): 79.9 nM
TGI (TK-10 renal): 229 nM
GI50 (BT-549 breast): 259 nM
TGI (BT-549 breast): 763 nM
GI50 (786-0 renal): 144 nM
TGI (786-0 renal): 433 nM
GI50 (RXF 393 renal): 78.6 nM
TGI (RXF 393 renal): 175 nM
GI50 (SK-MEL-5 melanoma): 225 nM
TGI (SK-MEL-5 melanoma): 814 nM
GI50 (HT29 colon): 31.3 nM
TGI (HT29 colon): 392 nM
GI50 (K-562 leukemia): 5 nM
TGI (K-562 leukemia): 1900 nM
GI50 (COLO 205 colon): 53.6 nM
TGI (COLO 205 colon): 129 nM
GI50 (OVCAR-3 ovarian): 99.4 nM
TGI (OVCAR-3 ovarian): 407 nM
GI50 (SK-MEL-28 melanoma): 122 nM
TGI (SK-MEL-28 melanoma): 433 nM
GI50 (CAKI-1 renal): 51.9 nM
TGI (CAKI-1 renal): 174 nM
GI50 (NCI-H460 lung): 84.5 nM
TGI (NCI-H460 lung): 254 nM
GI50 (UACC-62 melanoma): 86.3 nM
TGI (UACC-62 melanoma): 419 nM
GI50 (CCRF-CEM leukemia): 125 nM
TGI (CCRF-CEM leukemia): 5980 nM
GI50 (RPMI-8226 leukemia): 153 nM
TGI (RPMI-8226 leukemia): 553 nM
GI50 (SW-620 colon): 49.7 nM
TGI (SW-620 colon): 378 nM
GI50 (SR leukemia): 97.2 nM
TGI (SR leukemia): 367 nM
GI50 (MDA-MB-231 breast): 33 nM
TGI (MDA-MB-231 breast): 204 nM
GI50 (MALME-3M melanoma): 37.2 nM
TGI (MALME-3M melanoma): 153 nM
GI50 (A498 renal): 97.5 nM
TGI (A498 renal): 189 nM
GI50 (SK-OV-3 ovarian): 144 nM
TGI (SK-OV-3 ovarian): 405 nM
GI50 (UO-31 renal): 135 nM
TGI (UO-31 renal): 359 nM
GI50 (SK-MEL-2 melanoma): 68 nM
TGI (SK-MEL-2 melanoma): 144 nM
GI50 (MCF7 breast): 26.9 nM
TGI (MCF7 breast): 442 nM
GI50 (DU-145 prostate): 93.6 nM
TGI (DU-145 prostate): 398 nM
